From patent US20170022258A1, “PEPTIDES FOR USE IN THE TREATMENT OF IL-1 RELATED DISEASES AND CONDITIONS” (C4M PHARMACEUTICALS PTY LTD., priority 2011, published 2017)
Non-standard residues stand in square brackets, D forms with d. Residues, ends and D or L forms follow the SMILES beside them.

What was measured:
[1] = system: horses; test: Testing of peptide 4 in horses for treatment of osteoarthritis and equine laminitis; assay type: in vivo, horse; settings: 1 mg
Experimental: The peptides were prepared as compositions containing 1 mg of peptide dissolved in 5 ml of solution, comprising water, bicarbonate and either benzyl alcohol or methanol.

[2] = system: horses; test: Equine case studies (inflammatory conditions); assay type: in vivo, horse
Experimental: In these case studies, 13 different horses each suffering from different inflammatory conditions were treated with peptide 4, which was administered by injection in a composition containing the peptide dissolved in 5 ml of a solution comprising water, bicarbonate and either benzyl alcohol or methanol.

[3] = Human plasma stability trials; assay type: in vitro ADME; settings: 37° C., 12 hours, read-out: ½ Life human plasma
Experimental: 1 mg of each peptide was added to the plasma and the solution was gently agitated for 2 minutes at room temperature before standing at 37° C. for a period of 12 hours.

[4] = system: thoroughbred having equine laminitis; test: Effect of peptides on equine laminitis (Obel Lameness Grades); assay type: in vivo, horse
Experimental: Each of the peptides having the sequences 13, 14, 19 and 4 were also tested to determine their effect on equine laminitis. Each peptide was administered intravenously to a thoroughbred having equine laminitis. The peptides were prepared as compositions containing 1 mg of peptide dissolved in 5 ml of a solution comprising water, bicarbonate and either benzyl alcohol or methanol. The effect of the peptides on equine laminitis was judged by the Obel Lameness Grades, which is a system of rating degrees of lameness resulting from laminitis. […] Obel Grade III horses do resist having a foreleg lifted, and are reluctant to walk. Obel Grade IV horses will walk only if forced. The Obel Score for each of the horses was measured before administration of the peptide and 24 hours after injection of the peptide. […] The effect in reducing laminitis which was caused by one single injection of the peptides on laminitis was short-lived. Therefore, the duration of the effect of the peptides in reducing laminitis was further assessed by attending veterinarians.

[5] = system: IL-1α+IFN-γ induced IL-8 production by HT-29 cells; test: IL-1α+IFN-γ induced IL-8 production by HT-29 cells; assay type: cell-based, human
Experimental: (§1) Human colon epithelial cell lines HT-29 and Caco2 obtained from the European Collection of Animal Cell Cultures (ECACC) were used in cell cultures. Cells were routinely cultured at 37° C. in an atmosphere of 5% CO2 in 80 cm^2 tissue culture flasks in McCoy's and DMEM medium, respectively, supplemented with penicillin (10 u/ml), streptomycin (10 μg/ml), fungizone (0.5 μg/ml), and 10% (v/v) FCS (referred to as complete medium) until confluent.
(§2) Confluent monolayers were sub-cultured into 6-well plates for experimental protocols. Cells were grown in 6-well plates until confluent. Twenty-four hours prior to the experiment the confluent monolayers were washed and cultured in FCS-free McCoy's medium. Growth arrested cultures were then treated with fresh FCS-free medium and stimulated with vehicle controls or various doses of IL-1α added alone or in combination with other pro-inflammatory cytokines (TNF-α, IFN-γ) in the presence or absence of the peptide of sequence 4 or IL-1 ra, in a dose and time dependent manner.
Supernatants were collected, centrifuged to remove cellular debris and stored at −70° C. until assayed for extracellular inflammatory mediators. Total RNA for RT-PCR was extracted as described above. Cell counting and viability was routinely checked at the beginning and the end of the experiment by phase microscopy and by trypan blue exclusion using representative wells. Mycoplasma tests were performed during the experimental protocol. Production of soluble mediators was assessed by commercially available ELISA in supernatants, RT-PCR in total RNA extractants and nitric oxide, as described in Kolios, G, et al. (1995). Br J Pharmacol, 116, 2866-2872, the contents of which are incorporated herein by reference.
Stimulation of HT-29 cells with a combination of pro-inflammatory cytokines induces increased secretion of chemokines, including IL-8 (as described in Kolios, G, et al. (1999). Eur J Immunol, 29, 530-536 the contents of which are herein incorporated by reference). […]

[6] = Stability of peptide once dissolved in solution (1 month); assay type: physicochemical; settings: 1 mg in 5 ml water, bicarbonate and benzyl alcohol (19, 4) or methanol (13, 14)
Experimental: Each of the peptides having the sequences 13, 14, 19 and 4 were tested to determine their stability in a solution containing (preferred composition above) water, bicarbonate and either benzyl alcohol (peptide 19 and 4) or methanol (peptide 13 and 14). Each of the peptides were held for a period of 1 month at either 4° C. or at room temperature.
1 mg of each peptide was added to the water, bicarbonate and either benzyl alcohol or methanol solution and the solution was gently agitated for 1 hour at room temperature before standing at either 4° C. or at room temperature for a period of 1 month.

[7] = system: IL-1α+IFN-γ induced IL-17 production by HT-29 cells; test: IL-1α+IFN-γ induced IL-17 production by HT-29 cells; assay type: cell-based, human; settings: 10 ng/ml IL-1α+300 U IFN-γ, peptide 10 ng/ml and 500 ng/ml, stimulated control 13.14±3.92, n=6, p<0.001
Experimental: as §1, §2
Supernatants were collected, centrifuged to remove cellular debris and stored at −70° C. until assayed for extracellular inflammatory mediators. […] Production of soluble mediators was assessed by commercially available ELISA in supernatants, RT-PCR in total RNA extractants and nitric oxide, as described in Kolios, G, et al. (1995). […]

CC(=O)N[C@H](CC(C)C)C(=O)N1CCC[C@@H]1C(=O)N[C@H](CC(C)C)C(=O)N[C@H](C)C(=O)N[C@H](Cc1ccc(O)cc1)C(=O)N1CCC[C@@H]1C(=O)N[C@H](CCC(N)=O)C(=O)N[C@H](Cc1c[nH]c2ccccc12)C(=O)N[C@H](Cc1ccc(O)cc1)C(=O)NCC(=O)N1CCC[C@@H]1C(=O)N[C@@H](C(=O)N[C@H](Cc1c[nH]c2ccccc12)C(=O)N[C@H](CCC(=O)O)C(=O)N[C@H](Cc1ccccc1)C(=O)O)[C@H](C)O [SEQ ID NO. 4, Ac-LPLAYPQWYGPTWEF] (Ac-[dL][dP][dL][dA][dY][dP][dQ][dW][dY]G[dP][dT][dW][dE][dF]-OH; C-terminus assumed)
Duration ([1]; Laminitis, IV): 72 h
Effect ([1]; Laminitis, IV): Pronounced
Duration ([1]; OA, Joint): 48 h
Effect ([1]; OA, Joint): Moderate
Period without inflammation post-administration ([2]; Case 1): observed for 48 hours
Period of minimal pain and no heat post-administration ([2]; Case 2): 48 hours post-
Observations ([2]; Case 2: severe pain and heat in near fore hoof, 1 mg bolus intravenous): Minimal pain and no
Observations ([2]; Case 3: years of mild laminitis, 1 mg bolus intravenous every 3rd day for three weeks, during period of treatment): Complete relief of all
Time post-administration at which symptoms returned ([2]; Case 4): after 8 days. 10 days
Observations ([2]; Case 4: near fore fetlock heat and pain, fluid build up in lower deep flexor tendon, 1 mg bolus intravenous, after 8 days): Fetlock completely
Period with no pain or palpation ([2]; Case 5): observed for 14 days.
Period of complete pain relief and increased flexion ([2]; Case 6): observed for 6 days.
Observations ([2]; Case 6: four years of general knee joint pain, sodium hyaluranate (Synvisc) intra-articularly followed by 0.5 mg peptide 4): Complete pain relief
Observations ([2]; Case 7: three years of general knee pain, sodium hyaluranate (Synvisc) intra-articularly followed by 0.5 mg peptide 4, no follow up treatment required): Complete pain relief
Period of pronounced relief of symptoms ([2]; Case 8): over a 72 hour period.
Observations ([2]; Case 9: severe muscle/ligament tear between shoulder and rib cage, 1 mg bolus intravenous, within 24 hours): Symptoms reduced
Observations ([2]; Case 10: chronic joint pain in both knees and fetlocks, sodium hyaluranate (Synvisc) intra-articularly followed by 0.5 mg peptide 4, within 24 hours post-treatment): Significant pain relief,
Observations ([2]; Case 11: mild work-related shin soreness, 1 mg bolus intravenous every 3rd day for a week, after the second injection): Significant improvement
Observations ([2]; Case 12: mild work-related shin soreness, 1 mg bolus intravenous, after 24 hours post-administration): Significant pain relief
Observations ([2]; Case 13: severe pain from inflammation and fluid build-up at 18 month old tendon injury, 1 mg weekly bolus intravenous): Complete relief of pain,
half-life [3]: 18.1 h
Change in Obel Score ([4]; 1 mg intravenously, before vs 24 hours after injection, most negative = greatest improvement): −2.9
Duration (days) of effect on laminitis ([4]; single 1 mg intravenous, averaged, report by veterinarians): 4 days
IL-1α+IFN-γ induced IL-8 production ([5]; 10 ng/ml IL-1α+300 U IFN-γ, peptide 5 ng/ml, stimulated control 78.79±6.99, n=3): 35.41±4.23 ng/ml per 106 cells
Effect on IL-1α+IFN-γ induced IL-8 production ([5]; all concentrations used, 5 ng/ml-1 μg/ml, p<0.01, FIG. 3): inhibitory effect for all concentrations used
Stability of peptide once dissolved in solution (at 1 month), 4° C. (month) ([6]; 4° C.): 100%
Stability of peptide once dissolved in solution (at 1 month), Room Temp (month) ([6]; room temperature): 96%
IL-1α+IFN-γ-induced IL-17 production [7]: 4.97±0.84 pg/ml per 106 cells
